Source: US6511817B1, “Methods and device for in vitro detection and characterization of psychoactives using analysis of repetitive electrical activity in a neuronal sample” (Matsushita Electric Industrial Co., Ltd., priority 1999, dated 2003)
“Also recorded” adds a separate entry of the source.

What was measured:
Format in all cases: cell-based, Sprague-Dawley rat
[1] = system: hippocampal slice; test: Effect of bath-applied drugs on carbachol-induced beta waves in hippocampal slices on a 64-electrode MED array, FFT analysis; conditions: for power within the 20 Hz band / shift in the peak: 10 μM Ampakine after carbachol
Description: (§1) The general procedures for the preparation of the Multi-Electrode Dish (Matsushita Electric Industrial Co. Ltd., Osaka, Japan: “the MED probe”) were described above. Procedures for the MED probe preparation are also described by Oka et al. […]. The device has an array of 64 planar microelectrodes, each having a size of 50×50 μm, arranged in an 8 by 8 pattern. Probes come with two types of interpolar distance, 150 μm (Panasonic: MED-P515AP) and 450 μm (Panasonic: MED-P545AP).
(§2) To provide sufficient adhesion of the neuronal sample slice to the MED surface, the surface of the MED probe was treated with 0.1% polyethylenimine (Sigma: P-3143) in 25 mM borate buffer, pH 8.4, for 8 hours at room temperature. The probe surface was rinsed 3 times with sterile distilled water. The probe (chamber) was then filled with DMEM/F-12 mixed medium, containing 10% fetal bovine serum (GIBCO: 16141-079) and 10% horse serum (GIBCO: 16050-122), for at least 1 hour at 37° C. DMEM/F-12 mixed medium is a 1:1 mixture of Dulbecco's Modified Eagle's Medium and Ham's F-12 (GIBCO: D/F-12 medium, 12400-024), supplemented with N2 supplement (GIBCO: 17502-014) and hydrocortisone (20 nM, Sigma, H0888).
(§3) A 17-24 day old Sprague-Dawley rat was sacrificed by decapitation after anesthesia using halothane (2-Bromo-2 chloro-1,1,1 -trifluoroethane, Sigma: B4388), and the whole brain was removed carefully. The brain was immediately soaked in ice-cold, oxygenated preparation buffer of the following composition (in mM): 124 NaCl, 26 NaHCO3, 10 glucose, 3 KCl, 1.25 NaH2PO4, 2 CaCl2, 2 MgSO4, for approximately 2 minutes. Appropriate portions of the brain were trimmed and placed on the ice-cold stage of a vibrating tissue slicer (Leica: VT-1000S). The stage was immediately filled with both oxygenated and frozen preparation buffers. The thickness of each tissue slice was 350 μm. Each slice was gently taken off the blade by a painting brush, trimmed, and immediately soaked in the oxygenated preparation buffer for 1 hour at room temperature. Then a slice was placed on the center of the MED probe. The slice was positioned to cover the 8×8 array. After positioning the slice, the MED probe was immediately placed in a box filled with 95% O^2 and 5% CO^2 and allowed to recover at 32° C. for 1 hour.
(§4) During electrophysiological recording, the slices on the MED probe were placed in a small CO2 incubator (Asahi Lifescience: model 4020) at 32° C. After recovery of the slice on the MED probe, the medium was replaced with DMEM/F-12 mixed medium without serum. The slices were on the interface, and contacted with a moisturized 95% O2 and 5% CO2 gas mixture. In this condition, the responses were recorded for more than 2 hours.
(§5) Drugs were purchased from RBI (diazepam, bicuculline, CNQX, 2-hydroxysaclofen) or Sigma (all other compounds). CX614 and CX691 were produced by Cortex Pharmaceuticals Inc. (Irvine, Calif.). All drugs were bath applied at known concentrations and were prepared daily from frozen aliquots.
(§6) Spontaneous and evoked field potentials at all 64 sites were recorded simultaneously with the multi-channel recording system (Matsushita Electric Industrial Co. Ltd, the “MED64 system”) at a 20 kHz sampling rate. In the case of the evoked response, one of the planar microelectrodes out of the 64 available was used for cathode of stimulating. Bipolar constant current pulses (10 to 50 μA, 0.1 msec) were produced by the data acquisition software through the isolator. The stimulating microelectrode was selected by the 64 switch-box. The measured field potentials were then subjected to analysis using the CSD analysis (Nicholson et al) discussed below.

[2] = system: hippocampal slice; test: Carbachol induction of rhythmic activity in hippocampus (fields CA1 and CA3), MED array, FFT analysis; conditions: for group mean dominant CA1 frequency / group mean dominant CA3 frequency: mean ± s.d.
Description: as §1, §2, §3, §4, §5, §6

[3] = system: entorhinal cortex; test: Carbachol-induced 40 Hz rhythm in retrohippocampal cortex, MED broad array
Description: as §3, with “Then a slice was placed on the center of the MED probe. The slice was positioned to cover the 8×8 array. After positioning the slice, the MED probe was immediately placed in a box filled with 95% O^2 and 5% CO^2 and allowed to recover at 32° C. for 1 hour.” left out
During electrophysiological recording, the slices on the MED probe were placed in a small CO2 incubator (Asahi Lifescience: model 4020) at 32° C. […] In this condition, the responses were recorded for more than 2 hours.
Spontaneous and evoked field potentials at all 64 sites were recorded simultaneously with the multi-channel recording system (Matsushita Electric Industrial Co. Ltd, the “MED64 system”) at a 20 kHz sampling rate. […] The measured field potentials were then subjected to analysis using the CSD analysis (Nicholson et al) discussed below. […]

[4] = diazepam plus carbachol, FIG. 13C

CN1C(=O)CN=C(c2ccccc2)c2cc(Cl)ccc21 [diazepam]
amplitude of beta oscillations ([1]; 3 μM diazepam, 20 μM carbachol): markedly enhanced
change in the frequency of the waves ([1]; 3 μM diazepam, 20 μM carbachol): not accompanied by a significant change; also recorded: without much shift
increase in power within the 20 Hz band over carbachol alone [1, 4]: nearly threefold increase
peak added at a higher (gamma) frequency [1, 4]: approximately 40 Hz

O=C(c1ccc2nonc2c1)N1CCCCC1 [CX691]
power within the 20 Hz band [1]: significant increase
shift in the peak [1]: 10 Hz

O=C1c2cc3c(cc2OC2CCCN12)OCCO3 (centres unmarked) [CX614]
power within the 20 Hz band [1]: significant increase
shift in the peak [1]: 10 Hz

N#Cc1cc2[nH]c(=O)c(=O)[nH]c2cc1[N+](=O)[O-] [CNQX]
amplitude of carbachol-induced waves ([1]; 20 μM): significantly diminished and/or eliminated
effect on carbachol-induced high frequency rhythms ([1]; 20 μM): greatly reduced
power of carbachol-induced waves ([1]; 20 μM): significant decrease
synchronized activity in carbachol-treated sample ([1]; 20 μM): very rapid loss

CN1[C@@H]2CC[C@H]1C[C@@H](OC(=O)C(CO)c1ccccc1)C2 (some centres unmarked) [atropine]
effect on carbachol-induced high frequency rhythms ([1]; 20 μM): completely eliminated

NS(=O)(=O)c1cccc2c1c([N+](=O)[O-])cc1nc(O)c(O)nc12 [NBQX]
amplitude of carbachol-induced waves ([1]; 10 μM): significantly diminished and/or eliminated
power of carbachol-induced waves ([1]; 10 μM): significant decrease
synchronized activity in carbachol-treated sample ([1]; 10 μM): very rapid loss

picrotoxin
effect on carbachol-induced beta waves ([1]; 50 μM picrotoxin): marked reduction

C[N+](C)(C)CCOC(N)=O [carbachol, carbyl choline chloride]
slices with rhythmic activity in CA1 and CA3 close to or within the beta band (10-30 Hz) ([2]; after infusion of carbachol): 41 of 55
group mean dominant CA1 frequency ([2]; all slices): 18.8±5.7 Hz
group mean dominant CA3 frequency ([2]; all slices): 16.4±5.7 Hz
group mean dominant CA1 frequency ([2]; beta instances alone): 19.2±4.8 Hz
group mean dominant CA3 frequency ([2]; beta instances alone): 17.3±4.2 Hz
peak of rhythmic activity in apical dendrites of hippocampal pyramidal cell fields ([2]; carbachol 50 μM): ~20 Hz
peak of the power spectrum ([2]; example slice of FIG. 6B): 20 Hz
frequency of oscillations in deep layers of the medial entorhinal cortex ([3]; carbachol 50 μM): 40 Hz
slices with forty Hz activity in the deep layers of the entorhinal cortex ([3]; slices with appropriately positioned electrodes): each of the 15 slices

O=[N+]([O-])c1cc2nc(O)c(O)nc2cc1[N+](=O)[O-] [DNQX]
amplitude of carbachol-induced waves ([1]; 20 μM): significantly diminished and/or eliminated
power of carbachol-induced waves ([1]; 20 μM): significant decrease
synchronized activity in carbachol-treated sample ([1]; 20 μM): very rapid loss
